Here are results for two compounds from US6710048B2, “Pyrazine derivatives as modulators of tyrosine kinases” (Ortho-McNeil Pharmaceutical, Inc., priority 2000, dated 2004).

Assay [1] deals with HeLa cervical adenocarcinoma. The assay can be described thus: Cell proliferation assay (14C-thymidine incorporation), HeLa. The format is cell-based. The conditions noted are these: Homo sapiens, read-out: Inhibition of cell proliferation IC50. The essentials:
(§1)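 Cells plated 24 h, then compound in DMSO added for 24 h before 0.2 μCi/well methyl-14C-thymidine and another 24 h at 37° C., 5% CO2 with drug present. Incorporated 14C-thymidine counted in scintillating plates after PBS washes; DMSO-only wells as controls.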
A general note: Uptake of a labelled nucleoside into DNA is a usual measure of proliferation.

Assay [2] has as its system HCT-116 colon carcinoma. Briefly: Cell proliferation assay (14C-thymidine incorporation), HCT-116. The format is cell-based. The note with it: Homo sapiens, read-out: Inhibition of cell proliferation IC50. As for the experimental part: (§2) The ability of a test compound to inhibit the proliferation of cell growth was determined by measuring incorporation of ^14C-labelled thymidine into newly synthesized DNA within the cells. This method was used on cell lines derived from carcinomas originating from several tissues such as HeLa cervical adenocarcinoma (American Type Culture Collection (ATCC), Virginia, Cat. #CCL-2), A375 malignant melanoma (ATCC CRL-1619), SK-OV-3 ovarian adenocarcinoma (ATCC HTB-77) HCT-116 colon carcinoma (CCL-247) and PC-3 prostate adenocarcinoma (ATCC CRL-1435). The method was also used on primary cells such as HUVEC endothelial cells (ATCC CRL-1730). In this way the effect of a compound on cell growth of cells with many different phenotypes can be determined. Cells were trypsinized and counted and 3000-8000 cells were added to each well of a 96-well CytoStar tissue culture treated scintillating microplate (Amersham #RPNQ0160) in complete medium in a volume of 100 μl. Cells were incubated for 24 hours in complete medium at 37° C. in an atmosphere containing 5% CO2.
(§3) Next, 1 μl of test compound in 100% DMSO was added to the wells of the plate. DMSO only was added to control wells. Cells were incubated for 24 more hours in complete medium at 37° C. in an atmosphere containing 5% CO2. Methyl ^14C-thymidine 56 mCi/mmol (NEN #NEC568 or Amersham #CFA532) was diluted in complete medium and 0.2 μCi/well was added to each well of the CytoStar plate in a volume of 20 μl. The plate was incubated for 24 hours at 37° C. plus 5% CO2 in drug plus ^14C-thymidine. The contents of the plate were discarded into a ^14C radioactive waste container by inverting the plate and the plate was washed twice with 200 μl PBS. 200 μl of PBS is then added to each well. The top of the plate was sealed with a transparent plate sealer and a white plate backing sealer (Packard #6005199) was applied to the bottom of the plate. The degree of Methyl ^14C-thymidine incorporation was quantified on a Packard Top Count.

For assay [3], the system named is SK-OV-3 ovarian adenocarcinoma. Briefly: Cell proliferation assay (14C-thymidine incorporation), SK-OV-3. The format is cell-based. The conditions noted are these: Homo sapiens, read-out: Inhibition of cell proliferation IC50. As for the experimental part:
as §2, §3

Assay [4] deals with MDA-MB-231. Briefly: Cell proliferation assay (14C-thymidine incorporation), MDA-MB-231. The format is cell-based. The note with it: Homo sapiens, read-out: Inhibition of cell proliferation IC50. As for the experimental part: as §2, §3
Assay [5] has as its system PC-3 prostate adenocarcinoma. Briefly: Cell proliferation assay (14C-thymidine incorporation), PC-3. The format is cell-based. The note with it: Homo sapiens, read-out: Inhibition of cell proliferation IC50. The essentials: as §1
In assay [6] the test system is rat aortic ring. The assay can be described thus: Rat aortic ring assay (vascular sprouting). The format is cell-based. The conditions noted are these: 192 h; rat aortic ring in fibrin gel, analyzed on day 8; read-out: Inhibition of Vascular Sprouting (IC50μM). How it is done: The rat aortic ring assay is a rapid in vitro assay that measures new capillary growth in an environment that closely approximates the in vivo conditions of the extracellular matrix. The assay was performed as described (Nicosia, R F and Ottinetti, A. Growth of new microvessels in serum-free matrix culture of rat aorta. Lab Invest., 63: 115-122, 1990). Thoracic aortas were removed from 1 to 2-month old male Sprague-Dawley rats and transferred to a culture dish containing serum-free MCDB 131 medium (Clonetics). Extraneous tissue was removed and the aorta was sectioned into rings approximately 1 mm long and rinsed 8-10 times in serum-free medium. A solution of sterile 1.5% agarose (Type VI-A, Sigma, St. Louis, Mo.) was added to the wells of a 6-well plate. The wells were filled with clotting fibrinogen solution and an aortic ring was transferred into the well positioned with the lumen oriented horizontally in the center of the fibrin gel solution. The fibrinogen solution was prepared in MCDB 131 medium with bovine fibrinogen at 3 mg/ml. Clotting was initiated by adding 20 μl of a 50 NIH units/ml bovine thrombin solution and the fibrin gel generally formed within 30 seconds. The fibrinolytic inhibitor amino-n-caproic acid was added to the culture medium at 300 µg/ml (microgram per milliliter) for the first four days of the assay and at 50 μg/ml from day 5 to day 8. Once the fibrin gel solution solidified, 5 ml of serum-free MCDB 131 media containing 100 μg/ml penicillin, 100 μg/ml streptomycin and 0.25 μg/ml amphotericin B was added to each well. Explants were incubated at 37° C. with 5% CO2 for 8 days. Medium was replaced every 2-3 days and the assay was analyzed on day 8. Inhibition of vascular sprouting was measured by adding test compounds diluted in DMSO.

The test system of assay [7] is A375 human melanoma cells. Briefly: In vivo inhibition of tumor growth (A375 in athymic mice). Also on record: species or system mouse. The note with it: A375 cells s.c. in male athymic mice, intraperitoneally once a day for 30 days, 50 mg/Kg and 5 mg/Kg (FIG. 1). From the text:
The in vivo effect of a compound on the growth of human tumor cells can be evaluated by implanting human tumor cells into the hindflank of athymic mice and administering test compound to the mice. Such assays are useful in identifying and confirming compounds that are useful for inhibiting angiogenesis or to identify compounds that can inhibit VEGF activity and therefor are useful for treating a variety of cancers or other diseases associated with abnormal or aberrant angiogenesis, such as those diseases discussed supra. Human tumor cells originating from a variety of different cancer types, such as A375 human melanoma cells, were implanted subcutaneously into the hindflank of male athymic mice (Charles River) and allowed to establish a sizeable tumor for 6-10 days as determined by caliper measurements. Test compound was then administered by injecting the compound formulated in an appropriate vehicle, here saline was used as the vehicle, intraperitoneally into the mice once a day for 30 days. The test compound can also be administered by other routes such as orally, sub cutaneously or by intravenous infusion. The size of the tumor in this study was measured every four days and the degree of inhibition was determined by comparing drug-treated animals to animals that were injected with vehicle only. […]

Consider `CN(C)CCNc1cncc(-c2cncc(Nc3cccc(Cl)c3)n2)c1` [Cmd 33, N′-[5-[6-[(3-chlorophenyl)amino]pyrazinyl]-3-pyridinyl]-N^2,N^2-dimethyl-1,2-ethanediamine], for which the IC50 is 2230 nM in assay [1]; > 100 µM in assay [2]; 21.5 µM in assay [3]; 12.7 µM in assay [4]; 22.9 µM in assay [5]; > 1 µM in assay [6]. Moreover, the entries for the “tumor growth delay (tumor size)” value in assay [7] and in assay [7] (listed as compound 33) were “delay of tumor size progression” and “tumor growth delay”, respectively.

Take `Clc1cccc(Nc2cncc(-c3cncc(NCCCN4CCCCC4)c3)n2)c1` [Cmd 73]: the IC50 worked out at 2200 nM in assay [1] and 3.78 µM in assay [3].
